Values of other authors, collected in US12653891B2, “Stable glucocorticoid formulation” (AVM Biotechnology, LLC, priority 2018, dated 2026).
Counter-ions that a name gives are not always drawn. Like-named read-outs stand apart in the source and are kept apart here.

Assays:
[1] = not given; remark: listed apart in the source

| SMILES | Threshold (EMA/CHMP/334655/2013) (5 years up to 17 years and adults) [mg/kg] | Threshold (EMA/CHMP/334655/2013) (29 days up to 4 years) [mg/kg] | Amount that can accumulate and cause lactic acidosis, CNS depression, coma, hypoglycemia, seizures, hemolysis (IV) [g/day] | Threshold (EMA/CHMP/334655/2013) (neonates up to 28 days) [mg/kg] | Solubility in alcohol ([1]; alcohol) | Solubility in chloroform and ether ([1]; chloroform and ether) | Solubility in dioxan ([1]; dioxan) |
| --- | --- | --- | --- | --- | --- | --- | --- |
| CC(O)CO (stereo not shown) [Propylene glycol] | 500 | 50 | ≥ 3 | 1 | – | – | – |
| C[C@@H]1C[C@H]2[C@@H]3CCC4=CC(=O)C=C[C@]4(C)[C@@]3(F)[C@@H](O)C[C@]2(C)[C@@]1(O)C(=O)COP(=O)(O)O [Dexamethasone phosphate (as sodium), 9-fluoro-11b,17,21-trihydroxy-16a-methylpregna-1,4-diene-3,20-dione 21-(dihydrogen phosphate) Disodium Salt] | – | – | – | – | slightly soluble | practically insoluble | very slightly soluble |
